Experimental data reported in US4110327A, “2,3 Diketo-piperazinocarbonylamino alkanoic acids and derivatives” (Toyama Chemical Co., Ltd., priority 1974, dated 1978).
Values after ≈ are worked out from the molar mass of the structure shown.

Key:
Experiment in all cases: MIC against standard strain, plate method
Assay type in all cases: cell-based
Escherichia coli NIHJ = conditions: unit assumed
Description: (§1) The minimum inhibitory concentrations (MIC) was determined by the plate method disclosed in "Chemotherapy" (Japan), Vol. 16, (1968), pages 98 - 99. The culture medium used was a Heart infusion agar (pH 7.4). The number of the cells per plate used in the inoculum as 10^4 (10^6 cells/ml).

Klebsiella pneumoniae = conditions: unit assumed
Description: as §1

Proteus vulgaris 3027 = conditions: Proteus vulgaris 3027, standard strain; unit assumed
Description: as §1

[1] = test system: Pseudomonas aeruginosa I.F.O.; conditions: unit assumed
Description: as §1

[2] = test system: Staphylococcus aureus 209p; conditions: unit assumed
Description: as §1

SMILES | MIC (Escherichia coli NIHJ) [µg/mL] | MIC (Klebsiella pneumoniae) [µg/mL] | MIC (Proteus vulgaris 3027) [µg/mL] | MIC [1] [µg/mL] | MIC [2] [µg/mL]
CN1CCN(C(=O)NC(C(=O)N[C@@H]2C(=O)N3[C@@H]2SC(C)(C)[C@@H]3C(=O)O)c2cccs2)C(=O)C1=O (stereo partly drawn) [compound 58] | < 1.57 | 25 (≈ 49.1 µM) | 3.13 (≈ 6.14 µM) | 12.5 (≈ 24.5 µM) | < 1.57
CCN1CCN(C(=O)NC(C(=O)NC2C(=O)N3C(C(=O)O)=C(CSc4cccc[n+]4[O-])CSC23)c2ccccc2)C(=O)C1=O (single isomer, unassigned) [compound 70] | 1.57 (≈ 2.45 µM) | 1.56 (≈ 2.43 µM) | < 0.79 | 100 (≈ 156 µM) | < 0.79
C=CC(C)N1CCN(C(=O)N[C@@H](C(=O)N[C@@H]2C(=O)N3[C@@H]2SC(C)(C)[C@@H]3C(=O)O)c2ccccc2)CC1=O (single isomer, unassigned) [compound 26] | < 1.57 | 25 (≈ 47.2 µM) | 12.5 (≈ 23.6 µM) | 25 (≈ 47.2 µM) | < 1.57
CCCCCCCCN1CCN(C(=O)N[C@@H](C(=O)N[C@@H]2C(=O)N3[C@@H]2SC(C)(C)[C@@H]3C(=O)OCOC)c2ccccc2)C(=O)C1=O (single isomer, unassigned) [compound 51] | < 0.4 | < 0.4 | < 0.4 | 12.5 (≈ 19.4 µM) | < 0.4
CC1(C)S[C@@H]2[C@H](NC(=O)[C@H](NC(=O)N3CCN(C(=O)C4CCCCC4)CC3=O)c3ccccc3)C(=O)N2[C@H]1C(=O)O [compound 3] | < 1.57 | 3.13 (≈ 5.34 µM) | 3.13 (≈ 5.34 µM) | 100 (≈ 171 µM) | < 1.57
CC1(C)S[C@@H]2[C@H](NC(=O)[C@H](NC(=O)N3CCN(S(C)(=O)=O)CC3=O)c3ccccc3)C(=O)N2[C@H]1C(=O)O [compound 5] | < 1.57 | 12.5 (≈ 22.6 µM) | < 1.57 | 25 (≈ 45.2 µM) | < 1.57
CC(=O)OCCN1CCN(C(=O)N[C@@H](C(=O)N[C@@H]2C(=O)N3[C@@H]2SC(C)(C)[C@@H]3C(=O)O)c2ccccc2)C(=O)C1=O (single isomer, unassigned) [compound 41] | < 1.57 | 6.25 (≈ 10.9 µM) | < 1.57 | 25 (≈ 43.4 µM) | < 1.57
CCCCN1C(=O)CN(C(=O)N[C@@H](C(=O)N[C@@H]2C(=O)N3[C@@H]2SC(C)(C)[C@@H]3C(=O)O)c2ccccc2)CC1C (stereo partly drawn) [compound 22] | < 1.57 | 12.5 (≈ 22.9 µM) | 6.25 (≈ 11.5 µM) | 50 (≈ 91.6 µM) | < 1.57
CN1CCN(C(=O)N[C@@H](C(=O)N[C@@H]2C(=O)N3[C@@H]2SC(C)(C)[C@@H]3C(=O)OCCN2CCCCC2)c2ccccc2)C(=O)C1=O (single isomer, unassigned) [compound 53] | < 0.4 | 25 (≈ 40.7 µM) | 0.79 (≈ 1.29 µM) | 6.25 (≈ 10.2 µM) | 0.79 (≈ 1.29 µM)
CC(C)N1CCN(C(=O)N[C@@H](C(=O)N[C@@H]2C(=O)N3[C@@H]2SC(C)(C)[C@@H]3C(=O)O)c2ccccc2)CC1=O [compound 20] | < 1.57 | 25 (≈ 48.3 µM) | 3.13 (≈ 6.05 µM) | 12.5 (≈ 24.1 µM) | 3.13 (≈ 6.05 µM)
CCCCN1CC(=O)N(C(=O)N[C@@H](C(=O)N[C@@H]2C(=O)N3[C@@H]2SC(C)(C)[C@@H]3C(=O)O)c2ccccc2)C(C)C1 (stereo partly drawn) [compound 15] | 3.13 (≈ 5.74 µM) | 6.25 (≈ 11.5 µM) | 6.25 (≈ 11.5 µM) | 50 (≈ 91.6 µM) | < 1.57
CC1(C)S[C@@H]2[C@H](NC(=O)[C@H](NC(=O)N3CCN(Cc4ccccc4)C(=O)C3)c3ccccc3)C(=O)N2[C@H]1C(=O)O [compound 23] | < 1.57 | 6.25 (≈ 11 µM) | 3.13 (≈ 5.53 µM) | 25 (≈ 44.2 µM) | < 1.57
CCN1CC(C)N(C(=O)NC(C(=O)NC2C(=O)N3C(C(=O)O)=C(CSc4nnnn4C)CSC23)c2ccccc2)C(=O)C1=O (stereo not drawn) [compound 66] | < 0.79 | 0.79 (≈ 1.23 µM) | < 1.57 | 25 (≈ 38.8 µM) | < 0.79
CC1(C)S[C@@H]2[C@H](NC(=O)[C@H](NC(=O)N3CCN(C(=O)c4ccccc4)CC3=O)c3ccccc3)C(=O)N2[C@H]1C(=O)O [compound 7] | < 1.57 | 12.5 (≈ 21.6 µM) | 6.25 (≈ 10.8 µM) | 200 (≈ 345 µM) | < 1.57
CC1(C)S[C@@H]2[C@H](NC(=O)[C@H](NC(=O)N3CC(=O)N(Cc4ccccc4)CC3=O)c3ccccc3)C(=O)N2[C@H]1C(=O)O [compound 35] | 6.25 (≈ 10.8 µM) | 25 (≈ 43.1 µM) | 25 (≈ 43.1 µM) | 100 (≈ 173 µM) | 1.57 (≈ 2.71 µM)
CN1CCN(C(=O)N[C@@H](C(=O)N[C@@H]2C(=O)N3[C@@H]2SC(C)(C)[C@@H]3C(=O)OC2OC(=O)c3ccccc32)c2ccccc2)C(=O)C1=O (single isomer, unassigned) [compound 49] | 0.79 (≈ 1.24 µM) | 12.5 (≈ 19.7 µM) | 1.57 (≈ 2.47 µM) | 12.5 (≈ 19.7 µM) | < 0.4
C=C(C)CN1CCN(C(=O)N[C@@H](C(=O)N[C@@H]2C(=O)N3[C@@H]2SC(C)(C)[C@@H]3C(=O)O)c2ccccc2)CC1=O [compound 27] | < 1.57 | 25 (≈ 47.2 µM) | 3.13 (≈ 5.91 µM) | 25 (≈ 47.2 µM) | < 1.57
CC1(C)S[C@@H]2[C@H](NC(=O)[C@H](NC(=O)N3CCN(C(=O)Nc4ccccc4)C(=O)C3)c3ccccc3)C(=O)N2[C@H]1C(=O)O [compound 33] | < 1.57 | 6.25 (≈ 10.5 µM) | 3.13 (≈ 5.26 µM) | 50 (≈ 84.1 µM) | < 1.57
CCCCCCCCN1CCN(C(=O)NC(C(=O)NC2C(=O)N3C2SC(C)(C)C3C(=O)OCCN2CCOCC2)c2ccccc2)C(=O)C1=O (stereo not drawn) [compound 56] | < 0.4 | 1.57 (≈ 2.2 µM) | 0.79 (≈ 1.11 µM) | 12.5 (≈ 17.5 µM) | < 0.4
CN1CCN(C(=O)NC(C(=O)NC2C(=O)N3C2SC(C)(C)C3C(=O)OCCN2CCOCC2)c2ccccc2)C(=O)C1=O (single isomer, unassigned) [compound 55] | 0.4 (≈ 0.649 µM) | 25 (≈ 40.5 µM) | 0.79 (≈ 1.28 µM) | 6.25 (≈ 10.1 µM) | 0.79 (≈ 1.28 µM)
CN1CCN(C(=O)N[C@@H](C(=O)N[C@@H]2C(=O)N3[C@@H]2SC(C)(C)[C@@H]3C(=O)OCOC(=O)C(C)(C)C)c2ccccc2)C(=O)C1=O (single isomer, unassigned) [compound 52] | 0.79 (≈ 1.28 µM) | 25 (≈ 40.5 µM) | 1.57 (≈ 2.54 µM) | 25 (≈ 40.5 µM) | 0.79 (≈ 1.28 µM)
CCCCCCCCN1CCN(C(=O)NC(C(=O)NC2C(=O)N3C2SC(C)(C)C3C(=O)OCCN2CCCCC2)c2ccccc2)C(=O)C1=O (single isomer, unassigned) [compound 54] | 0.4 (≈ 0.561 µM) | 0.79 (≈ 1.11 µM) | 0.79 (≈ 1.11 µM) | 12.5 (≈ 17.5 µM) | 0.79 (≈ 1.11 µM)
C=CCN1CCN(C(=O)N[C@@H](C(=O)N[C@@H]2C(=O)N3[C@@H]2SC(C)(C)[C@@H]3C(=O)O)c2ccccc2)C(=O)C1=O (single isomer, unassigned) [compound 42] | < 1.57 | 6.25 (≈ 11.8 µM) | < 1.57 | 12.5 (≈ 23.6 µM) | 1.57 (≈ 2.96 µM)
CCCCCCN1CCN(C(=O)N[C@@H](C(=O)N[C@@H]2C(=O)N3[C@@H]2SC(C)(C)[C@@H]3C(=O)O)c2ccccc2)CC1=O [compound 29] | < 1.57 | 3.13 (≈ 5.59 µM) | 3.13 (≈ 5.59 µM) | 12.5 (≈ 22.3 µM) | 3.13 (≈ 5.59 µM)
CC(=O)NC(=O)N1CCN(C(=O)N[C@@H](C(=O)N[C@@H]2C(=O)N3[C@@H]2SC(C)(C)[C@@H]3C(=O)O)c2ccccc2)C(=O)C1 [compound 11] | < 1.57 | 50 (≈ 89.2 µM) | 6.25 (≈ 11.1 µM) | 50 (≈ 89.2 µM) | < 1.57
COCOC(=O)[C@@H]1N2C(=O)[C@@H](NC(=O)[C@H](NC(=O)N3CCN(C)C(=O)C3=O)c3ccccc3)[C@H]2SC1(C)C (single isomer, unassigned) [compound 50] | < 0.79 | 6.25 (≈ 11.4 µM) | < 0.79 | 6.25 (≈ 11.4 µM) | < 0.79
CCN1CCN(C(=S)NC(C(=O)NC2C(=O)N3C(C(=O)O)=C(COC(C)=O)CSC23)c2ccccc2)C(=O)C1=O (stereo not drawn) [compound 67] | < 0.79 | 3.13 (≈ 5.31 µM) | 12.5 (≈ 21.2 µM) | 100 (≈ 170 µM) | 6.25 (≈ 10.6 µM)
